Reference: patent US20240342292A1, “Compounds for the Degradation of EGFR Kinase” (BeiGene Switzerland GmbH, priority 2021, published 2024)

How the values were obtained:
Del19/T790M/C797S EGFR = test: EGFR degradation HTRF assay in H1975-clone #28 (DTC) cells; format: cell-based; settings: H1975 # 28 DTC (Del19/T790M/C797S), 16h treatment; for DC50: HTRF; for Dmax (%): maximum percentage of degradation
Method in brief: (§1)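 Cells carrying only lentiviral mutant EGFR, since endogenous alleles were removed by CRISPR, received compounds on day 2 for 16 h. Final concentrations ran from 10 uM down in 5-fold steps over 8 doses. After lysis, EGFR levels were quantified by HTRF and DC50 derived by curve fitting.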

L858R/T790M/C797S EGFR = target: T1, L858R/T790M/C797S EGFR (Homo sapiens, UniProt P00533, C797S/L858R/T790M); test: EGFR degradation HTRF assay in H1975-clone #25 (LTC) cells; format: cell-based; settings: 16h treatment; for DC50: H1975 # 25-LTC (L858R/T790M/C797S), HTRF; for Dmax: NCI-H1975, H1975 # 25-LTC (L858R/T790M/C797S), maximum percentage of degradation
T1 construct: expressed in transfected cells; host or cells: H1975 clone #25 (lentiviral over-expression, endogenous EGFR knocked out by sgRNA)
T1 sequence (P00533 25-1210 T790M/C797S/L858R): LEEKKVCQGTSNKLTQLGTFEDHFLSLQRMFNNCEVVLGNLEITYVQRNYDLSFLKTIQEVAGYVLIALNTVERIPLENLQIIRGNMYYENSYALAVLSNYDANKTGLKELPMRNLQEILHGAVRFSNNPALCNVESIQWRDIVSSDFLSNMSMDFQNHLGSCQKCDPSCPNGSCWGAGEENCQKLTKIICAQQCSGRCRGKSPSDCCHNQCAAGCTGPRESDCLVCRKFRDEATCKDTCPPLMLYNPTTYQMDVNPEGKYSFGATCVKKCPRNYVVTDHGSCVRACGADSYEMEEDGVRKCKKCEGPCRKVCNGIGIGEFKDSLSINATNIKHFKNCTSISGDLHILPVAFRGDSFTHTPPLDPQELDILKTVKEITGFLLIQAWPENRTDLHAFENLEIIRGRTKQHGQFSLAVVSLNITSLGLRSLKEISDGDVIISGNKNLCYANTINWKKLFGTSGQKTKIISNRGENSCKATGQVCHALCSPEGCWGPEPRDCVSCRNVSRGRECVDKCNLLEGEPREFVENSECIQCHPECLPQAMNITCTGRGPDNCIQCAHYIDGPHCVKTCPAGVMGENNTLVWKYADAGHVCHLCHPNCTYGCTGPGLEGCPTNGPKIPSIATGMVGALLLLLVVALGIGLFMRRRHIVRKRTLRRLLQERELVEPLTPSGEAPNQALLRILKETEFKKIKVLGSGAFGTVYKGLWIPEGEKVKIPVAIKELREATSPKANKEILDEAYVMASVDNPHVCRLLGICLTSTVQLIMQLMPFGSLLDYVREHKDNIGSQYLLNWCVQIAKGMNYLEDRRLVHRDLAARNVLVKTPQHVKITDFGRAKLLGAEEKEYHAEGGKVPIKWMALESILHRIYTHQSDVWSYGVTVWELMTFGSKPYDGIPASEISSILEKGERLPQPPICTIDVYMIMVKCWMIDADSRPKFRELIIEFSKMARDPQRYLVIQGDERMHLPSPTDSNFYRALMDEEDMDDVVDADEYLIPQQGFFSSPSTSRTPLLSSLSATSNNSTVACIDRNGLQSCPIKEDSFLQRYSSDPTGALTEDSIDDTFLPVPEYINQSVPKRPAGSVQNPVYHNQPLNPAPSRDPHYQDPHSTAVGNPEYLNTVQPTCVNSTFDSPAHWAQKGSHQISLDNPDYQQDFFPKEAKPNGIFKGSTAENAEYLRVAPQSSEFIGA
Method in brief: as §1

SMILES	DC50 (Del19/T790M/C797S EGFR)	DC50 (L858R/T790M/C797S EGFR)	Dmax (L858R/T790M/C797S EGFR)	Dmax (%) (Del19/T790M/C797S EGFR)
Cc1cc2cc(n1)-c1cnn(C)c1OCCC[C@@H](C)CN1/C(=N/C2=O)Nc2ccc(C(=O)N(C)[C@@H]3CCN(C4CN(c5cc(F)c([C@H]6CCC(=O)NC6=O)c(F)c5)C4)C[C@@H]3F)cc21 [Example 382, (R,E)-N—((3S,4R)-1-(1-(4-((R)-2,6-dioxopiperidin-3-yl)-3,5-difluorophenyl)azetidin-3-yl)-3-fluoropiperidin-4-yl)-N,1^1,2^6,7-tetramethyl-3-oxo-5^2,5^3-dihydro-1^1H,5^1H-11-oxa-4-aza-5(2,1)-benzo[d]imidazola-2(2,4)-pyridina-1(4,5)-pyrazolacycloundecaphane-5^5-carboxamide]	0.617 nM	0.233 nM	87.5%	86.76%
Cc1cc2cc(n1)-c1cnn(C)c1OCCC[C@@H](C)CN1/C(=N/C2=O)Nc2ccc(N3CCN(C4CCN(c5cc(F)c([C@H]6CCC(=O)NC6=O)c(F)c5)CC4)C[C@@H]3C)cc21 [Example 383, (R)-3-(2,6-difluoro-4-(4-((S)-3-methyl-4-((R,E)-1^1,2^6,7-trimethyl-3-oxo-5^2,5^3-dihydro-1^1H,5^1H-11-oxa-4-aza-5(2,1)-benzo[d]imidazola-2(2,4)-pyridina-1(4,5)-pyrazolacycloundecaphane-5-yl)piperazin-1-yl)piperidin-1-yl)phenyl)piperidine-2,6-dione]	2.19 nM	1.34 nM	88.8%	73.18%
Cc1cc2cc(n1)-c1cnn(C)c1OCCC[C@@H](C)CN1/C(=N/C2=O)Nc2ccc(N3CCN(C4CCN(c5cc(F)c([C@H]6CCC(=O)NC6=O)c(F)c5)CC4)C[C@H]3C)cc21 [Example 384, (R)-3-(2,6-difluoro-4-(4-((R)-3-methyl-4-((R,E)-1^1,2^6,7-trimethyl-3-oxo-5^2,5^3-dihydro-1^1H,5^1H-11-oxa-4-aza-5(2,1)-benzo[d]imidazola-2(2,4)-pyridina-1(4,5)-pyrazolacycloundecaphane-5^6-yl)piperazin-1-yl)piperidin-1-yl)phenyl)piperidine-2,6-dione]	1.5 nM	1.67 nM	87.7%	75.83%
Cc1cc2cc(n1)-c1cnn(C)c1OCC[C@H]1C[C@@H]1CN1/C(=N/C2=O)Nc2ccc(N3CCN(C4CCN(c5cc(F)c([C@H]6CCC(=O)NC6=O)c(F)c5)CC4)CC3)cc21 [Example 391, (R)-3-(4-(4-(4-((7^1S,7^2R,E)-1^1,2^6-dimethyl-3-oxo-5^2,5^3-dihydro-1^1H,5^1H-10-oxa-4-aza-5(2,1)-benzo[d]imidazola-2(2,4)-pyridina-1(4,5)-pyrazola-7(1,2)-cyclopropanacyclodecaphane-5^6-yl)piperazin-1-yl)piperidin-1-yl)-2,6-difluorophenyl)piperidine-2,6-dione]	1.54 nM	1.56 nM	87.5%	85.34%
Cc1cc2cc(n1)-c1cnn(C)c1OCCC[C@@H](C)CN1/C(=N/C2=O)Nc2ccc(N3CCC(N4CC(Nc5cc(F)c([C@H]6CCC(=O)NC6=O)c(F)c5)C4)CC3)cc21 [Example 392, (R)-3-(2,6-difluoro-4-((1-(1-((R,E)-1^1,2^6,7-trimethyl-3-oxo-5^2,5^3-dihydro-1^1H,5^1H-11-oxa-4-aza-5(2,1)-benzo[d]imidazola-2(2,4)-pyridina-1(4,5)-pyrazolacycloundecaphane-5^6-yl)piperidin-4-yl)azetidin-3-yl)amino)phenyl)piperidine-2,6-dione]	0.821 nM	1.29 nM	86.7%	75.48%
Cc1cc2cc(n1)-c1cnn(C)c1OCCC[C@@H](C)CN1/C(=N/C2=O)Nc2ccc(N3CCN(CCc4ccc(C5CCC(=O)NC5=O)nc4C)CC3)cc21 (stereo partly drawn) [Example 393, 3-(6-methyl-5-(2-(4-((R,E)-1^1,2^6,7-trimethyl-3-oxo-5^2,5^3-dihydro-1^1H,5^1H-11-oxa-4-aza-5(2,1)-benzo[d]imidazola-2(2,4)-pyridina-1(4,5)-pyrazolacycloundecaphane-5^6-yl)piperazin-1-yl)ethyl)pyridin-2-yl)piperidine-2,6-dione]	0.54 nM	0.34 nM	89.8%	77.73%
Cc1cc2cc(n1)-c1cnn(C)c1OCCC[C@@H](C)CN1/C(=N/C2=O)Nc2ccc(N3CCC(N(C)C4CCN(c5cc(F)c([C@H]6CCC(=O)NC6=O)c(F)c5)CC4)CC3)cc21 [Example 394, (R)-3-(2,6-difluoro-4-(4-(methyl(1-((R,E)-1^1,2^6,7-trimethyl-3-oxo-5^2,5^3-dihydro-1^1H,5^1H-11-oxa-4-aza-5(2,1)-benzo[d]imidazola-2(2,4)-pyridina-1(4,5)-pyrazolacycloundecaphane-5^6-yl)piperidin-4-yl)amino)piperidin-1-yl)phenyl)piperidine-2,6-dione]	0.901 nM	0.787 nM	74.1%	69.35%
Cc1cc2cc(n1)-c1cnn(C)c1OCCC[C@@H](C)CN1/C(=N/C2=O)Nc2ccc(N3CCN(C4CCN(c5ccc(C6CCC(=O)NC6=O)nc5)CC4)CC3=O)cc21 (stereo partly drawn) [Example 395, 3-(5-(4-(3-oxo-4-((R,E)-1^1,2^6,7-trimethyl-3-oxo-5^2,5^3-dihydro-1^1H,5^1H-11-oxa-4-aza-5(2,1)-benzo[d]imidazola-2(2,4)-pyridina-1(4,5)-pyrazolacycloundecaphane-5^6-yl)piperazin-1-yl)piperidin-yl-)pyridin-2-yl)piperidine-2,6-dione]	0.526 nM	1.02 nM	84.5%	77.96%
Cc1cc2cc(n1)-c1cnn(C)c1OCCC[C@@H](C)CN1/C(=N/C2=O)Nc2ccc(N3CCN(C4CCN(c5ccc6c(c5)CN([C@H]5CCC(=O)NC5=O)C6=O)CC4)CC3)cc21 [Example 396, (S)-3-(1-oxo-5-(4-(4-((R,E)-1^1,2^6,7-trimethyl-3-oxo-5^2,53-dihydro-1^1H,5^1H-11-oxa-4-aza-5(2,1)-benzo[d]imidazola-2(2,4)-pyridina-1(4,5)-pyrazolacycloundecaphane-5^6-yl)piperazin-1-yl)piperidin-1-yl)isoindolin-2-yl)piperidine-2,6-dione]	0.681 nM	0.622 nM	83.6%	63.49%

Second part, led by results:

DC50 (Del19/T790M/C797S EGFR)	DC50 (L858R/T790M/C797S EGFR)	Dmax (L858R/T790M/C797S EGFR)	SMILES	Dmax (%) (Del19/T790M/C797S EGFR)
1.58 nM	2.63 nM	82.3%	COC[C@H]1CN(C2CCN(c3cc(F)c([C@H]4CCC(=O)NC4=O)c(F)c3)CC2)CCN1c1ccc2c(c1)N1C[C@H](C)CCCOc3c(cnn3C)-c3cc(cc(C)n3)C(=O)/N=C/1N2 [Example 385, (R)-3-(2,6-difluoro-4-(4-((R)-3-(methoxymethyl)-4-((R,E)-1^1,2^6,7-trimethyl-3-oxo-5^2,5^3-dihydro-1^1H,5^1H-li-oxa-4-aza-5(2,1)-benzo[d]imidazola-2(2,4)-pyridina-1(4,5)-pyrazolacycloundecaphane-5^6-yl)piperazin-1-yl)piperidin-1-yl)phenyl)piperidine-2,6-dione]	63.01%
2.01 nM	2.7 nM	86.6%	COC[C@@H]1CN(C2CCN(c3cc(F)c([C@H]4CCC(=O)NC4=O)c(F)c3)CC2)CCN1c1ccc2c(c1)N1C[C@H](C)CCCOc3c(cnn3C)-c3cc(cc(C)n3)C(=O)/N=C/1N2 [Example 386, (R)-3-(2,6-difluoro-4-(4-((S)-3-(methoxymethyl)-4-((R,E)-1^1,2^6,7-trimethyl-3-oxo-5^2,5^3-dihydro-1^1H,5^1H-11-oxa-4-aza-5(2,1)-benzo[d]imidazola-2(2,4)-pyridina-1(4,5)-pyrazolacycloundecaphane-5-yl)piperazin-1-yl)piperidin-1-yl)phenyl)piperidine-2,6-dione]	72.30%
0.782 nM	1.46 nM	87.2%	Cc1cc2cc(n1)-c1cnn(C)c1OCCC[C@@H](C)CN1/C(=N/C2=O)Nc2ccc(N3CCC(N4CCN(c5cc(F)c([C@H]6CCC(=O)NC6=O)c(F)c5)CC4)CC3)cc21 [Example 387, (R)-3-(2,6-difluoro-4-(4-(1-((R,E)-1^1,2^6,7-trimethyl-3-oxo-5^2,53-dihydro-1^1H,5^1H-11-oxa-4-aza-5(2,1)-benzo[d]imidazola-2(2,4)-pyridina-1(4,5)-pyrazolacycloundecaphane-5^6-yl)piperidin-4-yl)piperazin-1-yl)phenyl)piperidine-2,6-dione]	76.00%
0.776 nM	1.11 nM	86.5%	Cc1cc2cc(n1)-c1cnn(C)c1OCCC[C@@H](C)CN1/C(=N/C2=O)Nc2ccc(N3CCN(C4CCN(c5cc(F)c([C@H]6CCC(=O)NC6=O)c(F)c5)CC4)[C@H](C)C3)cc21 [Example 388, (R)-3-(2,6-difluoro-4-(4-((R)-2-methyl-4-((R,E)-1^1,2^6,7-trimethyl-3-oxo-5^2,5^3-dihydro-1^1H,5^1H-11-oxa-4-aza-5(2,1)-benzo[d]imidazola-2(2,4)-pyridina-1(4,5)-pyrazolacycloundecaphane-5^6-yl)piperazin-1-yl)piperidin-yl)phenyl)piperidine-2,6-dione]	80.94%
1.69 nM	2.49 nM	87.7%	COCc1cc2c(cc1N1CCN(C3CCN(c4cc(F)c([C@H]5CCC(=O)NC5=O)c(F)c4)CC3)CC1)N1C[C@H](C)CCCOc3c(cnn3C)-c3cc(cc(C)n3)C(=O)/N=C/1N2 [Example 390, (R)-3-(2,6-difluoro-4-(4-(4-((R,E)-5^5-(methoxymethyl)-1^1,2^6,7-trimethyl-3-oxo-5^2,5^3-dihydro-1^1H,5^1H-11-oxa-4-aza-5(2,1)-benzo[d]imidazola-2(2,4)-pyridina-1(4,5)-pyrazolacycloundecaphane-5^6-yl)piperazin-1-yl)piperidin-1-yl)phenyl)piperidine-2,6-dione]	73.87%
